Data set [1] can be described thus: LNP size, PDI and zeta potential by Dynamic Light Scattering (Method A). It counts as physicochemical. The note with it: LNP formulated by Method A; for Zeta potential (mV): 1xPBS pH 7.4; for PDI / Size (nm): DLS; for Size (nm): Luciferase-mRNA loaded. As to the method:
(§1) The synthesized lipids were tested in term of in vitro transfection efficacy and toxicity on HeLa cells. In order to perform the mentioned biological tests, appropriate LNPs had to be formulated from the synthesized lipids. The formulation technique was different in Method A and B. The particle size, PDI and zeta potential of resulting LNPs were determined by means of Dynamic Light Scattering technique (DLS). Prior to biological testing the encapsulation efficiency (EE) of the loaded LNPs was determined by using RiboGreen RNA assay. In case of Method A Luciferase-mRNA while in case of Method B GFP-mRNA was transfected into the cells. In parallel with the transfection experiments, toxicity of the investigated LNPs was determined, in case of Method A resazurin assay while in case of Method B MTT assay was used. In the case of some lipids, the apparent pKa in LNPs was determined by using TNS titration based on the method described: Angew Chem Int Ed Engl. 2012, 51 (34), 8529-8533, doi: 10.1002/anie.201203263).
• 1. If needed, prepare stock solutions by solving known amounts of lipid powder into an appropriate solvent. The recommended solvent is Ethanol and the recommended concentration is typically in the range 10-50 mM. Higher concentrations are preferred to allow flexibility on mRNA-LNP concentration. • 2. Remove the lipid stock solutions from the −20° C. freezer. For long-term storage, −80° C. is used. • 3. Check the vials for precipitation, DOPE (CAS #4004-05-1) (20 mM) and DSPE-PEG (CAS #474922-26-4) (5 mM) may need a 5-30 minute incubation step at 37° C. with intermittent vortexing to resuspend all contents. […] As a last resort, lipids may be heated to 50° C. to resuspend, time should be kept as short as possible to prevent oxidation or other modifying or degradative processes. • 4. Mix the lipids by vortexing for 2 minutes. • 5. […] Cooling the solution prevent excessive evaporation of ethanol or similar solvents upon opening. • 6. Meanwhile, thaw the RNA samples, including the latest SecNLuc control, by inserting the frozen tube in a room temperature aluminium block. • 7. Prepare for each LNP-formulation with identical mRNA component, an RNA master mix according to Table 1 below in a fresh tube. Use of a master mix allows more precise comparison of lipid formulations relative to each other. Split the master mix over a number of fresh tubes equal to the number of samples+controls. Each tube contains 375 μl of mRNA in 10 mM Citrate pH 4.0. • 8. Prepare for each LNP formulation with identical lipid composition a Lipid master mix according to Table 1 below in a fresh tube, exclude the lipid of interest. Use of a master mix allows more precise comparison of the novel ionizable lipid relative to each other. Split the master mix over a number of fresh tubes equal to the number of samples+controls. Each tube contains 65.5 μl of lipid master mix. • 9. Add the ionizable lipid of interest to the equally divide lipid master mix. Mix well by pipetting up and down. Label the tube according to the ionizable lipid used. • 10. Power on the ‘L 1 formulation machine’ (L 1 FM) and allow it to do a calibration of motor positions.
• 18. Fill a fresh syringe (C) through a blunt 18 G stainless steel needle with the previously prepared RNA mixture of step 6. The volume should be approximately […] of total formulation volume+25 μl (dead-volume). Make sure to remove all air bubbles by tapping. • 19. Fill a fresh syringe (D) through a blunt 18 G stainless steel needle with the Lipid master mix. The volume should be approximately 35% of total formulation volume+25 μl (dead-volume). Again, Make sure to remove all bubbles. • 20. Attach the syringes in the correct orientation, syringe A on the left and syringe B on the right • 21. Load the ‘Receiving station’ with appropriate sized collection containers (2 ml Eppendorf tubes). • 22. Press the microfluidic chip to the back of the machine with your thumb and hold, press the ‘Button 1’ (40 g). […]

Data set [2] in a line: Encapsulation efficiency, RiboGreen RNA assay (Method A). It counts as physicochemical. The conditions noted are these: LNP formulated by Method A. As to the method:
as §1
• 1. Preparation of sample stock solutions: In the top row of the 96-well plate (Row A in the plate), add 297 μL of TE buffer pH 7.4 to a single well for each sample plus a single well for a PBS blank using a multichannel pipette. • 2. Add 3 μL of sample (at 0.5 mg/ml) to these wells for a final volume of 300 μL. Add 3 μL of PBS to the blank well. Pipette to mix. This is your stock solution for each sample. The final RNA concentration of these stock solutions should be approximately 4-7 μg/mL. • 3. mRNA-LNP sample setup: • a. Add 50 μL of TE buffer pH 7.5 to the two wells directly below each sample (Rows B and C in the plate). • b. Add 50 μL of sample stock solution from Row A into the wells in Rows B and C (this assay is run in duplicate. All liquid handling should be done using a multichannel pipette). • c. Add 50 μL of Triton buffer to the wells in Rows D and E (in the plate) below each sample. • d. Add 50 μL of sample stock solution from Row A into the wells in Rows D and E. • 4. RiboGreen RNA standard curve setup: Dilute the RNA standard to produce an RNA stock at a final concentration of 20 μg/mL in TE buffer pH 7.4. The final volume should be 150 μL. Set up a standard curve (in duplicate) as using the RNA stock (20 μg/mL siRNA), TE buffer pH 7.5, and Triton buffer according the Table 2 below.
• 5. Once samples and standard curve are plated, incubate the plate at 37° C. for 10 min to lyse mRNA-LNP in the presence of Triton X-100. • 6. Meanwhile, prepare RiboGreen Solution: Sum the total number of sample wells and standard curve wells. Add three to this number, and multiply the total by 100. This is the total volume, in μL, of RiboGreen Solution needed for this assay. In a 15 mL RNAse-free Falcon tube, dilute the RiboGreen Reagent 1:100 into TE buffer pH 7.5 to the total volume calculated. • 7. Addition of RiboGreen Solution and sample readings: Remove a 96-well plate from 37° C. incubator; let it cool to room temperature as RiboGreen binding is somewhat temperature dependent. Add 100 μL of RiboGreen Solution to each well. Pop any air bubbles with a needle. Read using fluorescent plate reader (excitation=480, emission=525). • 8. Sample analysis: Use the data generated by the RiboGreen standard curve to calculate the concentration of mRNA. Transfection Efficiency with Luciferase-mRNA (Method A)

With `CCCCCCCCC(CCCCCC)CO[Si](C)(C)OC(CCCCCCC)OCCCCCCN(CCCCO)CCC[C@@H](C)C1CCC2C3CCC4C[C@H](OC)CC[C@]4(C)C3CC[C@@]21C` (stereo partly drawn) [Example 223, 13-heptyl-18-hexyl-5-((4R)-4-((3R,10S,13R)-3-methoxy-10,13-dimethylhexadecahydro-1H-cyclopenta[a]phenanthren-17-yl)pentyl)-15,15-dimethyl-12,14,16-trioxa-5-aza-15-silahexacosan-1-ol], in data set [1], the “Zeta potential (mV)” value was −13.68 mV, the PDI is given as 0.15 and the “Size (nm)” value was determined as 206.5 nm. Further, the “EE (%)” value in data set [2] came to 94%.

For `CCCCCCCCOC(CCCCCN(CCO)CCCCCCCC(=O)OC(CCCCCCCC)CCCCCCCC)O[Si](C)(C)O[Si](C)(C)CCCCCCCC` (centres unmarked) [Example 191, heptadecan-9-yl 8-((2-hydroxyethyl)(6-(octyloxy)-6-((1,1,3,3-tetramethyl-3-octyldisiloxaneyl)oxy)hexyl)amino)octanoate], in data set [1], the “Zeta potential (mV)” value is on record as −10.35 mV, the PDI worked out at 0.05 and the “Size (nm)” value is on record as 159.4 nm. In addition, the “EE (%)” value in data set [2] was 96%.

On to `CCCCCCCCC(CCCCCC)C(=O)OCCCCCCN(CCCCO)CCCCCCO[Si](C)(C)OC(CCCCCCC)OCCCCCCC` (centres unmarked) [Example 140, 17-heptyl-7-(4-hydroxybutyl)-15,15-dimethyl-14,16,18-trioxa-7-aza-15-silapentacosyl 2-hexyldecanoate], for which, in data set [1], the “Zeta potential (mV)” value was −4.5 mV, the PDI was 0.05 and the “Size (nm)” value worked out at 130.8 nm. Besides, in data set [2], the “EE (%)” value amounted to 93%.

For `CCCCCCCCO[Si](C)(C)O[Si](C)(C)OC(CCCCCCC)OCCCCCCN(CCCCO)CCCCCCOC(=O)C(CCCCCCCC)SCCCCC` (centres unmarked) [Example 184, 15-heptyl-7-(4-hydroxybutyl)-17,17,19,19-tetramethyl-14,16,18,20-tetraoxa-7-aza-17,19-disilaoctacosyl 2-(pentylthio)decanoate], in data set [1], the “Zeta potential (mV)” value is listed as −14.83 mV, the PDI was found to be 0.146 and the “Size (nm)” value is 237.5 nm. Also, the “EE (%)” value in data set [2] turned out to be 92%.

With `CCCCCCCCCCSC(CCCC)C(=O)OCCCCCCN(CCCCO)CCCCCC(OCCCCCCCC)O[Si](C)(C)CCCCCCCC` (centres unmarked) [Example 166, 6-((6-((dimethyl(octyl)silyl)oxy)-6-(octyloxy)hexyl)(4-hydroxybutyl)amino)hexyl 2-(decylthio)hexanoate], in data set [1], the “Zeta potential (mV)” value is −13.01 mV, the PDI worked out at 0.185 and the “Size (nm)” value amounted to 223.6 nm. In addition, in data set [2], the “EE (%)” value is on record as 94%.

Regarding `CCCCCCCCOC(CCCCCN(CCCCO)CCCCCCOC(=O)C(CCCCCCCC)SCCCCC)O[Si](C)(C)OCCCCCCCC` (centres unmarked) [Example 179, 7-(4-hydroxybutyl)-15,15-dimethyl-13-(octyloxy)-14,16-dioxa-7-aza-15-silatetracosyl 2-(pentylthio)decanoate], in data set [1], the “Zeta potential (mV)” value is given as −10.65 mV, the PDI is on record as 0.038 and the “Size (nm)” value stood at 189.1 nm. The “EE (%)” value in data set [2] is on record as 94%.

On to `CCCCCCCC[Si](C)(C)OC(CCCCCCC)OCCCCCCN(CCCCO)CCC[C@@H](C)C1CCC2C3CCC4C[C@H](OC)CC[C@]4(C)C3CC[C@@]21C` (stereo partly drawn) [Example 215, 13-heptyl-5-((4R)-4-((3R,10S,13R)-3-methoxy-10,13-dimethylhexadecahydro-1H-cyclopenta[a]phenanthren-17-yl)pentyl)-15,15-dimethyl-12,14-dioxa-5-aza-15-silatricosan-1-ol], for which, in data set [1], the “Zeta potential (mV)” value was −3.3 mV, the PDI is 0.211 and the “Size (nm)” value is 204 nm. In data set [2], the “EE (%)” value is reported as 94%.

As to `CCCCCCCCCC(OCCCCCC)O[Si](C)(C)OCCCCCCN(CCCCO)CCCCCCOC(=O)C(CCCCCC)CCCCCCCC` (centres unmarked) [Example 144, 18-(4-hydroxybutyl)-10,10-dimethyl-8-nonyl-7,9,11-trioxa-18-aza-10-silatetracosan-24-yl 2-hexyldecanoate], in data set [1], the “Zeta potential (mV)” value is −10.5 mV, the PDI came to 0.15 and the “Size (nm)” value worked out at 133.9 nm. Moreover, the “EE (%)” value in data set [2] stood at 97%.

`CC/C=C\C/C=C\C/C=C\C/C=C\C/C=C\CCCCN(CCCCO)CCCCCC[Si](C)(C)OC(CCCCCCC)OCCCCCCCC` (centres unmarked) [Example 204, 14-heptyl-5-((5Z,8Z,11Z,14Z,17Z)-icosa-5,8,11,14,17-pentaen-1-yl)-12,12-dimethyl-13,15-dioxa-5-aza-12-silatricosan-1-ol]: in data set [1], the “Zeta potential (mV)” value is −10.63 mV, the PDI stood at 0.056 and the “Size (nm)” value is given as 140 nm. The “EE (%)” value in data set [2] is listed as 97%.

Regarding `CCCCCCCCOC(CCCCCN(CCCCO)CCCCCCOC(=O)C(CCCCCC)CCCCCCCC)O[Si](C)(C)OCC(CCCCCC)CCCCCCCC` (centres unmarked) [Example 136, 18-hexyl-7-(4-hydroxybutyl)-15,15-dimethyl-13-(octyloxy)-14,16-dioxa-7-aza-15-silahexacosyl 2-hexyldecanoate], in data set [1], the “Zeta potential (mV)” value is given as −13.28 mV, the PDI is reported as 0.259 and the “Size (nm)” value worked out at 305.2 nm. Also, the “EE (%)” value in data set [2] is listed as 90%.

On to `CCCCCCCCC(CCCCCC)C(=O)OCCCCCCN(CCCCO)CCCCCCOC(CCCCCCC)O[Si](C)(C)CCCCCCCC` (centres unmarked) [Example 129, 15-heptyl-7-(4-hydroxybutyl)-17,17-dimethyl-14,16-dioxa-7-aza-17-silapentacosyl 2-hexyldecanoate], for which, in data set [1], the “Zeta potential (mV)” value is −12.48 mV, the PDI turned out to be 0.054 and the “Size (nm)” value came out at 132.9 nm. Moreover, in data set [2], the “EE (%)” value was 96%.

These data come from patent US20260008793A1, “IONIZABLE CATIONIC LIPIDS INCORPORATING SILICON” (ALDEXCHEM KFT., priority 2022, published 2026).
